From patent US10562891B2, “Quinazolinones as PARP14 inhibitors” (Ribon Therapeutics Inc., priority 2017, dated 2020)

The compounds below were run against catalytic domain of human PARP14 (Homo sapiens (Human), UniProt Q460N5) (assay: Enzymatic assay for inhibition of PARP14 (DELFIA, auto-modification with biotin-NAD)). Details: auto-modification of PARP14 by biotin-NAD, 50 nM PARP14, 3 μM biotin-NAD.
Format: biochemical
Outline: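 His-TEV-tagged PARP14 catalytic domain (50 nM) preincubated with compound 30 min at 25 °C, then auto-modified with 3 μM biotin-NAD for 3 h at 25 °C in HEPES pH 8 buffer with DTT. IC50 from 4-parameter fit, rucaparib and DMSO as controls.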

Chain of catalytic domain of human PARP14 (Q460N5 1611-1801): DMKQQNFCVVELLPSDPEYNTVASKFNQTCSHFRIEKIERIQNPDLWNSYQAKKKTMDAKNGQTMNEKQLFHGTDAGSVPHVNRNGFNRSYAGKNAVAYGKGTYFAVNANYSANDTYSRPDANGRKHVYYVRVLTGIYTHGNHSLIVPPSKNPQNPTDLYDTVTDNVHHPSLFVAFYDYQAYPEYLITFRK

| Structure (SMILES) | IC50 [nM] |
| --- | --- |
| O=C(CO)N1CCC(SCc2nc3cc(OCC4CCC4)cc(F)c3c(=O)[nH]2)CC1 [Example 307, 7-(Cyclobutylmethoxy)-5-fluoro-2-(((1-(2-hydroxyacetyl)piperidin-4-yl)thio)methyl)quinazolin-4(3H)-one] | < 1000 |
| CC1(C)CC(SCc2nc3cc(OCC4CCC4)cc(F)c3c(=O)[nH]2)CCO1 (stereo not shown) [Example 308, 7-(Cyclobutylmethoxy)-2-(((2,2-dimethyltetrahydro-2H-pyran-4-yl)thio)methyl)-5-fluoroquinazolin-4(3H)-one] | < 1000 |
| O=c1[nH]c(CSC2CCCCC2)nc2cc(OCC3CCC3)cc(F)c12 [Example 309, 7-(Cyclobutylmethoxy)-2-((cyclohexylthio)methyl)-5-fluoroquinazolin-4(3H)-one] | < 1000 |
| O=c1[nH]c(CSC2CCCCC2)nc2cc(NC3CCCC3)c(F)c(F)c12 [Example 310, 2-((Cyclohexylthio)methyl)-7-(cyclopentylamino)-5,6-difluoroquinazolin-4(3H)-one] | < 1000 |
| NC(=O)[C@H]1CC[C@H](SCc2nc3cc(OCC4CCC4)cc(F)c3c(=O)[nH]2)CC1 [Example 311, Trans-4-(((7-(cyclobutylmethoxy)-5-fluoro-4-oxo-3,4-dihydroquinazolin-2-yl)methyl)thio)cyclohexane-1-carboxamide] | 1000 to 10000 |
| O=c1[nH]c(CSC2CCOCC2)nc2cc(OCC3CCCN(CC(F)F)C3)cc(F)c12 (stereo not shown) [Example 312, 7-((1-(2,2-Difluoroethyl)piperidin-3-yl)methoxy)-5-fluoro-2-(((tetrahydro-2H-pyran-4-yl)thio)methyl)quinazolin-4(3H)-one] | < 1000 |
| O=c1[nH]c(CS[C@H]2CC[C@H](O)CC2)nc2cc(NC3CCCC3)c(F)c(F)c12 [Example 313, 7-(Cyclopentylamino)-5,6-difluoro-2-(((trans-4-hydroxycyclohexyl)thio)methyl)quinazolin-4(3H)-one] | < 1000 |
| O=c1[nH]c(CS[C@H]2CC[C@H](O)CC2)nc2cc(OCC3CCCC3)cc(F)c12 [Example 314, 7-(Cyclopentylmethoxy)-5-fluoro-2-(((trans-4-hydroxycyclohexyl)thio)methyl)quinazolin-4(3H)-one] | < 1000 |
| O=c1[nH]c(CSC2CCOCC2)nc2cc(OCC3CC3(F)F)cc(F)c12 (stereo not shown) [Example 315, 7-((2,2-Difluorocyclopropyl)methoxy)-5-fluoro-2-(((tetrahydro-2H-pyran-4-yl)thio)methyl)quinazolin-4(3H)-one] | < 1000 |
| O=c1[nH]c(CSC2CCS(=O)(=O)CC2)nc2cc(NC3CCCC3)c(F)c(F)c12 [Example 316, 7-(Cyclopentylamino)-2-(((1,1-dioxidotetrahydro-2H-thiopyran-4-yl)thio)methyl)-5,6-difluoroquinazolin-4(3H)-one] | < 1000 |
| O=c1[nH]c(CSC2CCOCC2)nc2cc(OCC3CC(F)(F)C3)cc(F)c12 [Example 317, 7-((3,3-Difluorocyclobutyl)methoxy)-5-fluoro-2-(((tetrahydro-2H-pyran-4-yl)thio)methyl)quinazolin-4(3H)-one] | < 1000 |
| O=c1[nH]c(CS[C@H]2CC[C@H](O)CC2)nc2cc(OCC3CCCOC3)cc(F)c12 (stereo partly drawn) [Example 318, 5-Fluoro-2-(((trans-4-hydroxycyclohexyl)thio)methyl)-7-((tetrahydro-2H-pyran-3-yl)methoxy)quinazolin-4(3H)-one] | < 1000 |
| O=c1[nH]c(CSC2CCOCC2)nc2cc(OCC3CCCOC3)cc(F)c12 (stereo not shown) [Example 319, 5-Fluoro-7-((tetrahydro-2H-pyran-3-yl)methoxy)-2-(((tetrahydro-2H-pyran-4-yl)thio)methyl)quinazolin-4(3H)-one] | < 1000 |
| O=c1[nH]c(CSC2CCOCC2)nc2cc(OCC3CCCO3)cc(F)c12 (stereo not shown) [Example 320, 5-Fluoro-2-(((tetrahydro-2H-pyran-4-yl)thio)methyl)-7-((tetrahydrofuran-2-yl)methoxy)quinazolin-4(3H)-one] | < 1000 |
| O=c1[nH]c(CSC2CCOCC2)nc2cc(OC[C@H]3CCCO3)cc(F)c12 [Example 321a, (R)-5-Fluoro-2-(((tetrahydro-2H-pyran-4-yl)thio)methyl)-7-((tetrahydrofuran-2-yl)methoxy)quinazolin-4(3H)-one] | < 1000 |
| O=c1[nH]c(CSC2CCOCC2)nc2cc(OC[C@@H]3CCCO3)cc(F)c12 [Example 321b, (S)-5-Fluoro-2-(((tetrahydro-2H-pyran-4-yl)thio)methyl)-7-((tetrahydrofuran-2-yl)methoxy)quinazolin-4(3H)-one] | < 1000 |
| O=c1[nH]c(CSC2CCOCC2)nc2cc(NCC3CCOC3)c(F)c(F)c12 (stereo not shown) [Example 322, 5,6-Difluoro-2-(((tetrahydro-2H-pyran-4-yl)thio)methyl)-7-(((tetrahydrofuran-3-yl)methyl)amino)quinazolin-4(3H)-one] | < 1000 |
| O=c1[nH]c(CSC2CCOCC2)nc2cc(NC[C@@H]3CCOC3)c(F)c(F)c12 [Example 323a, (S)-5,6-Difluoro-2-(((tetrahydro-2H-pyran-4-yl)thio)methyl)-7-(((tetrahydrofuran-3-yl)methyl)amino)quinazolin-4(3H)-one] | < 1000 |
| O=c1[nH]c(CSC2CCOCC2)nc2cc(NC[C@H]3CCOC3)c(F)c(F)c12 [Example 323b, (R)-5,6-Difluoro-2-(((tetrahydro-2H-pyran-4-yl)thio)methyl)-7-(((tetrahydrofuran-3-yl)methyl)amino)quinazolin-4(3H)-one] | < 1000 |
| O=c1[nH]c(CS[C@H]2CC[C@H](O)CC2)nc2cc(OCC3CCOC3)cc(F)c12 (stereo partly drawn) [Example 324, 5-Fluoro-2-((((trans)-4-hydroxycyclohexyl)thio)methyl)-7-((tetrahydrofuran-3-yl)methoxy)quinazolin-4(3H)-one] | < 1000 |

| Structure (SMILES) | IC50 [nM] |
| --- | --- |
| O=c1[nH]c(CS[C@H]2CC[C@H](O)CC2)nc2cc(OC[C@@H]3CCOC3)cc(F)c12 [Example 325a, 5-Fluoro-2-((((trans)-4-hydroxycyclohexyl)thio)methyl)-7-(((R)-tetrahydrofuran-3-yl)methoxy)quinazolin-4(3H)-one] | < 1000 |
| O=c1[nH]c(CS[C@H]2CC[C@H](O)CC2)nc2cc(OC[C@H]3CCOC3)cc(F)c12 [Example 325b, 5-Fluoro-2-((((trans)-4-hydroxycyclohexyl)thio)methyl)-7-(((S)-tetrahydrofuran-3-yl)methoxy)quinazolin-4(3H)-one] | < 1000 |
| CN1CC[C@@H](COc2cc(F)c3c(=O)[nH]c(CSC4CCOCC4)nc3c2)[C@H](F)C1 [Example 327a, 5-Fluoro-7-(((3S,4S)-3-fluoro-1-methylpiperidin-4-yl)methoxy)-2-(((tetrahydro-2H-pyran-4-yl)thio)methyl)quinazolin-4(3H)-one] | < 1000 |
| CO[C@H]1C[C@@H](Nc2cc3nc(CSC4CCOCC4)[nH]c(=O)c3c(F)c2F)C1 [Example 328, 5,6-Difluoro-7-(((cis)-3-methoxycyclobutyl)amino)-2-(((tetrahydro-2H-pyran-4-yl)thio)methyl)quinazolin-4(3H)-one] | < 1000 |
| CC(=O)N[C@H]1CC[C@@H](SCc2nc3cc(OCC4CC4)cc(F)c3c(=O)[nH]2)CC1 [Example 329, N-((cis)-4-(((7-(Cyclopropylmethoxy)-5-fluoro-4-oxo-3,4-dihydroquinazolin-2-yl)methyl)thio)cyclohexyl)acetamide] | < 1000 |
| CC(=O)N[C@H]1CC[C@H](SCc2nc3cc(OCC4CC4)cc(F)c3c(=O)[nH]2)CC1 [Example 330, N-((trans)-4-(((7-(Cyclopropylmethoxy)-5-fluoro-4-oxo-3,4-dihydroquinazolin-2-yl)methyl)thio)cyclohexyl)acetamide] | < 1000 |
| CCO[C@H]1C[C@@H](Nc2cc3nc(CSC4CCOCC4)[nH]c(=O)c3c(F)c2F)C1 [Example 331, 7-(((cis)-3-Ethoxycyclobutyl)amino)-5,6-difluoro-2-(((tetrahydro-2H-pyran-4-yl)thio)methyl)quinazolin-4(3H)-one] | < 1000 |
| C[C@]1(O)CC[C@H](SCc2nc3cc(OCC4CCOCC4)cc(F)c3c(=O)[nH]2)CC1 [Example 332, 5-Fluoro-2-((((cis)-4-hydroxy-4-methylcyclohexyl)thio)methyl)-7-((tetrahydro-2H-pyran-4-yl)methoxy)quinazolin-4(3H)-one] | < 1000 |
| CN1CC[C@@H](COc2cc(F)c3c(=O)[nH]c(CS[C@H]4CC[C@H](O)CC4)nc3c2)[C@H](F)C1 [Example 335a, 5-fluoro-7-(((3S,4S)-3-fluoro-1-methylpiperidin-4-yl)methoxy)-2-((((trans)-4-hydroxycyclohexyl)thio)methyl)quinazolin-4(3H)-one] | < 1000 |
| NC[C@]1(F)CC[C@@H](SCc2nc3cc(OCC4CCC4)cc(F)c3c(=O)[nH]2)CC1 [Example 336] | 1000 to 10000 |
| O=c1[nH]c(CSC2CCOCC2)nc2cc(NCC3CC3)c(F)c(F)c12 [Example 337] | < 1000 |
| O=c1[nH]c(CSC2CCOCC2)nc2cc(NCC3CCOCC3)c(F)c(F)c12 [Example 338] | < 1000 |
| O=c1[nH]c(CSC2CCS(=O)(=O)CC2)nc2cc(NCC3CCC3)c(F)c(F)c12 [Example 339] | < 1000 |
| O=c1[nH]c(CS[C@H]2CC[C@H](O)CC2)nc2cc(OCC3CCOCC3)cc(F)c12 [Example 342] | < 1000 |
| O=c1[nH]c(CSC2CCOCC2)nc2cc(OCC3COC3)cc(F)c12 [Example 343] | < 1000 |
| O=c1[nH]c(CSC2CCOCC2)nc2cc(OCC3COCCO3)cc(F)c12 (stereo not shown) [Example 344] | < 1000 |
| O=c1[nH]c(CSC2CCOCC2)nc2cc(NC3CCCCC3(F)F)cc(F)c12 (stereo not shown) [Example 345] | < 1000 |
| CN1CCN([C@H]2CC[C@H](Nc3cc4nc(CSC5CCOCC5)[nH]c(=O)c4c(F)c3F)CC2)CC1 [Example 346] | < 1000 |
| CN1CCN([C@H]2CC[C@@H](Nc3cc4nc(CSC5CCOCC5)[nH]c(=O)c4c(F)c3F)CC2)CC1 [Example 347] | < 1000 |
| O=c1[nH]c(CSC2CCOCC2)nc2cc(N[C@@H]3CCCOC3)c(F)c(F)c12 [Example 348] | < 1000 |
